Molecular target: T1, Cholesteryl ester transfer protein (Homo sapiens, UniProt P11597)
T1 sequence (P11597 whole entry): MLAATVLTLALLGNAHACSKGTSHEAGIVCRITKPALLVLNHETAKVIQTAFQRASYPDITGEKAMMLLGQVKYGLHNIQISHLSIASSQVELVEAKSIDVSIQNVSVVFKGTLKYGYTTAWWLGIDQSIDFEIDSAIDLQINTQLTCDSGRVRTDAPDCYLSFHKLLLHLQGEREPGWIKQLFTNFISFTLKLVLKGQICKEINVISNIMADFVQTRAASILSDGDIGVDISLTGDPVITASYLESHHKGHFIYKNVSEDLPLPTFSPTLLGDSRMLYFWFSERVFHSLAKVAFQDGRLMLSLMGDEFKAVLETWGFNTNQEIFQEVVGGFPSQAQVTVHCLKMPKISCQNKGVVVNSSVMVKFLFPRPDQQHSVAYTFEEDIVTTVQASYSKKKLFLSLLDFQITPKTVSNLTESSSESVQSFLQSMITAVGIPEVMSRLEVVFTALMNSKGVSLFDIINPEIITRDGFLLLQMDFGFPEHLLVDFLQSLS
Experiment: Scintillation Proximity Assay (SPA): First, low density lipoprotein (LDL) (Meridian) was biotinylated by incubating LDL with biotin for 1 hour on ice, after which it was dialyzed to remove free biotin. Then compounds at varying concentrations were incubated with 15 nM CETP (reagent production group, In Vitro Pharmacology, MRL Rahway) and 50 ug/ml of the biotinylated LDL in 50 mM HEPES, 150 mM NaCl, pH 7.4, for 1 hour at 37° C. The reaction was started by adding 3H-cholesterol ester high density lipoprotein (HDL) (American Radiochemicals Corp) at a concentration of 0.6 nM. The reaction proceeded for 2 hours at 37° C., after which time it was quenched by the addition of 12% acetic acid. PVT streptavadin-coated scintillation proximity beads, which had been brought to room temperature, were then added at a concentration of 4 mg/ml. The assay was then mixed and counted after one half hour in a Microbeta plate reader.

In the case of `COc1ncc(Cl)cc1-c1cnc(N2CC(F)C2)nc1CN1C(=O)O[C@H](c2cc(C(F)(F)F)cc(C(F)(F)F)c2)[C@@H]1C`, the IC50 is reported as 38 nM.
